From patent US8952162B2, “Triazolopyridines as phosphodiesterase inhibitors for treatment of dermal diseases” (Leo Pharma A/S, priority 2008, dated 2015)

biological target: Human recombinant PDE4 (Genbank accession no NM—006203) (Homo sapiens, UniProt Q08499); experiment: PDE4 assay (SPA, cAMP cleavage); format: biochemical; settings: Example 53; PDE4 assay as in example 52; read-out: PDE4 IC50 range
Protocol: At the end of the incubation, the cleavage of the substrate was evaluated by the binding of the AMP product to SPA beads, which generate chemoluminescence when bound to the radioactive tracer. The AMP product inhibited the binding of the radioactive tracer to the beads, and the luminescent signal was competed.

Chain of Human recombinant PDE4 (Genbank accession no NM—006203) (Q08499 1-673 isoform Q08499-2): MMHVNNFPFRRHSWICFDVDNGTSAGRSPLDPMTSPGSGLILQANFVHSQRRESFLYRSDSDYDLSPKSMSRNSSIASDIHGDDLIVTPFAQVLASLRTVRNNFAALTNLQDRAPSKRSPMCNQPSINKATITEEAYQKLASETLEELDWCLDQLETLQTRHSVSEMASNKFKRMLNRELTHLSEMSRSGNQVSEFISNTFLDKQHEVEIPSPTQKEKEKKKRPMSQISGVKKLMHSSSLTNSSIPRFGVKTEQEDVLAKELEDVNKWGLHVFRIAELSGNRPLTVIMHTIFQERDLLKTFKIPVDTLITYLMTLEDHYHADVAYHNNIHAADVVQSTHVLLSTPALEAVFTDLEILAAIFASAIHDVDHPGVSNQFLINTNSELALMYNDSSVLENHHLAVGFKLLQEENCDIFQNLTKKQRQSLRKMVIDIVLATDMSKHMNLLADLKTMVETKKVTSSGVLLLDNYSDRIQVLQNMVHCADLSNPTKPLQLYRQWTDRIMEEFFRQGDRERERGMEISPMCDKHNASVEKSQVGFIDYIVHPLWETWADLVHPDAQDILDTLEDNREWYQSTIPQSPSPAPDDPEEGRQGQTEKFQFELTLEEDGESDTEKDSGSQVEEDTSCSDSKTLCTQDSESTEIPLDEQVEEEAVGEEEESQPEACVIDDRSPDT

SMILES | IC50 [nM]
CCOC(=O)C1(c2nc3c(OC)ccc(-c4cccc(C#N)c4)n3n2)CC1 [Compound 188, 1-[5-(3-Cyano-phenyl)-8-methoxy-[1,2,4]triazolo[1,5-a]pyridin-2-yl]-cyclopropanecarboxylic acid ethyl ester] | < 500
CCOC(=O)C1(c2nc3c(OC)ccc(-c4cccc(C(C)=O)c4)n3n2)CC1 [Compound 190, 1-[5-(3-Acetyl-phenyl)-8-methoxy-[1,2,4]triazolo[1,5-a]pyridin-2-yl]-cyclopropanecarboxylic acid ethyl ester] | < 500
COc1ccc(-c2cccc(C(C)=O)c2)n2nc(C3(C(=O)O)CC3)nc12 [Compound 193, 1-[5-(3-Acetyl-phenyl)-8-methoxyl-[1,2,4]triazolo[1,5-a]pyridin-2-yl]-cyclopropanecarboxylic acid] | > 1000
COc1ccc(-c2cccc(C#N)c2)n2nc(C3(C(=O)NC(C)C)CC3)nc12 [Compound 194, 1-[5-(3-Cyano-phenyl)-8-methoxyl-[1,2,4]triazolo[1,5-a]pyridin-2-yl]-cyclopropanecarboxylic acid isopropylamide] | < 500
COc1ccc(-c2cccc(C#N)c2)n2nc(C3(C(=O)NCc4cccnc4)CC3)nc12 [Compound 195, 1-[5-(3-Cyano-phenyl)-8-methoxy-[1,2,4]triazolo[1,5-a]pyridin-2-yl]-cyclopropanecarboxylic acid (pyridin-3-ylmethyl)-amide] | < 500
COc1ccc(-c2cccc(C#N)c2)n2nc(C3(C(=O)N4CCOCC4)CC3)nc12 [Compound 196, 3-{8-Methoxy-2-[1-(morpholine-4-carbonyl)-cyclopropyl]-[1,2,4]triazolo-[1,5-a]pyridin-5-yl}-benzonitrile] | 500 to 1000
COc1ccc(-c2cccc(C#N)c2)n2nc(C3(C(=O)NCc4ccccc4)CC3)nc12 [Compound 197, 1-[5-(3-Cyano-phenyl)-8-methoxyl-[1,2,4]triazolo[1,5-a]pyridin-2-yl]-cyclopropanecarboxylic acid benzylamide] | < 500
COc1ccc(-c2cccc(C#N)c2)n2nc(C3(C(=O)NCCS(N)(=O)=O)CC3)nc12 [Compound 198, 1-[5-(3-Cyano-phenyl)-8-methoxyl-[1,2,4]triazolo[1,5-a]pyridin-2-yl]-cyclopropanecarboxylic acid (2-sulfamoyl-ethyl)-amide] | < 500
COc1ccc(-c2cccc(C#N)c2)n2nc(C3(C(=O)NCCS(C)(=O)=O)CC3)nc12 [Compound 199, 1-[5-(3-Cyano-phenyl)-8-methoxy-[1,2,4]triazolo[1,5-a]pyridin-2-yl]-cyclopropanecarboxylic acid (2-methanesulfonyl-ethyl)-amide] | < 500
COc1ccc(-c2cccc(C#N)c2)n2nc(C3(C(=O)N4CCCC4)CC3)nc12 [Compound 200, 3-{8-Methoxy-2-[1-(pyrrolidine-1-carbonyl)-cyclopropyl]-[1,2,4]triazolo[1,5-a]pyridin-5-yl}-benzonitrile] | 500 to 1000
C=C(C)C(=O)OCCNC(=O)C1(c2nc3c(OC)ccc(-c4cccc(C#N)c4)n3n2)CC1 [Compound 201, 2-Methyl-acrylic acid 2-({1-[5-(3-cyano-phenyl)-8-methoxy-[1,2,4]triazolo[1,5-a]pyridin-2-yl]-cyclopropanecarbonyl}-amino)-ethyl ester] | < 500
COCCNC(=O)C1(c2nc3c(OC)ccc(-c4cccc(C#N)c4)n3n2)CC1 [Compound 202, 1-[5-(3-Cyano-phenyl)-8-methoxy-[1,2,4]triazolo[1,5-a]pyridin-2-yl]-cyclopropanecarboxylic acid (2-methoxy-ethyl)-amide] | < 500
COc1ccc(-c2ccc(C#N)cc2)n2nc(C3(C(=O)N4CCN(C)CC4)CC3)nc12 [Compound 204, 4-{8-Methoxy-2-[1-(4-methyl-piperazine-1-carbonyl)-cyclopropyl]-[1,2,4]triazolo[1,5-a]pyridin-5-yl}-benzonitrile] | > 1000
COc1ccc(-c2ccc(C#N)cc2)n2nc(C3(C(=O)N4CCOCC4)CC3)nc12 [Compound 205, 4-{8-Methoxy-2-[1-(morpholine-4-carbonyl)-cyclopropyl]-[1,2,4]triazolo[1,5-a]pyridin-5-yl}-benzonitrile] | > 1000
COc1ccc(-c2ccc(C#N)cc2)n2nc(C3(C(=O)NCCC(=O)N4CCOCC4)CC3)nc12 [Compound 218, 1-[5-(4-Cyano-phenyl)-8-methoxy-[1,2,4]triazolo[1,5-a]pyridin-2-yl]-cyclopropanecarboxylic acid (3-morpholin-4-yl-3-oxo-propyl)-amide] | < 500
COc1ccc(-c2cccc(C(C)=O)c2)n2nc(C3(C(=O)NCc4cccnc4)CC3)nc12 [Compound 221, 1-[5-(3-Acetyl-phenyl)-8-methoxy-[1,2,4]triazolo[1,5-a]pyridin-2-yl]-cyclopropanecarboxylic acid (pyridin-3-ylmethyl)-amide] | < 500
COc1ccc(-c2cccc(C(C)=O)c2)n2nc(C3(C(=O)N4CCN(C)CC4)CC3)nc12 [Compound 222, 1-(3-{8-Methoxy-2-[1-(4-methyl-piperazine-1-carbonyl)-cyclopropyl]-[1,2,4]triazolo[1,5-a]pyridin-5-yl}-phenyl)-ethanone] | 500 to 1000

Now from value to molecule:

IC50 [nM] | SMILES
< 500 | COc1ccc(-c2ccc(C#N)cc2)n2nc(C3(C(=O)NCc4cccnc4)CC3)nc12 [Compound 203, 1-[5-(4-Cyano-phenyl)-8-methoxy-[1,2,4]triazolo[1,5-a]pyridin-2-yl]-cyclopropanecarboxylic acid (pyridin-3-ylmethyl)-amide]
< 500 | COc1ccc(-c2ccc(C#N)cc2)n2nc(C3(C(=O)NCc4ccccc4)CC3)nc12 [Compound 206, 1-[5-(4-Cyano-phenyl)-8-methoxy-[1,2,4]triazolo[1,5-a]pyridin-2-yl]-cyclopropanecarboxylic acid benzylamide]
< 500 | COc1ccc(-c2ccc(C#N)cc2)n2nc(C3(C(=O)NCCS(N)(=O)=O)CC3)nc12 [Compound 207, 1-[5-(4-Cyano-phenyl)-8-methoxy-[1,2,4]triazolo[1,5-a]pyridin-2-yl]-cyclopropanecarboxylic acid (2-sulfamoyl-ethyl)-amide]
< 500 | COc1ccc(-c2ccc(C#N)cc2)n2nc(C3(C(=O)NCCS(C)(=O)=O)CC3)nc12 [Compound 208, 1-[5-(4-Cyano-phenyl)-8-methoxy-[1,2,4]triazolo[1,5-a]pyridin-2-yl]-cyclopropanecarboxylic acid (2-methanesulfonyl-ethyl)-amide]
< 500 | COc1ccc(-c2ccc(C#N)cc2)n2nc(C3(C(=O)NC(C)C)CC3)nc12 [Compound 209, 1-[5-(4-Cyano-phenyl)-8-methoxy-[1,2,4]triazolo[1,5-a]pyridin-2-yl]-cyclopropanecarboxylic acid isopropylamide]
< 500 | CNC(=O)C1(c2nc3c(OC)ccc(-c4ccc(C#N)cc4)n3n2)CC1 [Compound 210, 1-[5-(4-Cyano-phenyl)-8-methoxy-[1,2,4]triazolo[1,5-a]pyridin-2-yl]-cyclopropanecarboxylic acid methylamide]
< 500 | CCNC(=O)C1(c2nc3c(OC)ccc(-c4ccc(C#N)cc4)n3n2)CC1 [Compound 211, 1-[5-(4-Cyano-phenyl)-8-methoxy-[1,2,4]triazolo[1,5-a]pyridin-2-yl]-cyclopropanecarboxylic acid ethylamide]
< 500 | CCCNC(=O)C1(c2nc3c(OC)ccc(-c4ccc(C#N)cc4)n3n2)CC1 [Compound 212, 1-[5-(4-Cyano-phenyl)-8-methoxy-[1,2,4]triazolo[1,5-a]pyridin-2-yl]-cyclopropanecarboxylic acid propylamide]
< 500 | COc1ccc(-c2ccc(C#N)cc2)n2nc(C3(C(=O)NC4CC4)CC3)nc12 [Compound 213, 1-[5-(4-Cyano-phenyl)-8-methoxy-[1,2,4]triazolo[1,5-a]pyridin-2-yl]-cyclopropanecarboxylic acid cyclopropylamide]
< 500 | COc1ccc(-c2ccc(C#N)cc2)n2nc(C3(C(=O)NCC(C)C)CC3)nc12 [Compound 214, 1-[5-(4-Cyano-phenyl)-8-methoxy-[1,2,4]triazolo[1,5-a]pyridin-2-yl]-cyclopropanecarboxylic acid isobutyl-amide]
< 500 | COc1ccc(-c2ccc(C#N)cc2)n2nc(C3(C(=O)NCC#N)CC3)nc12 [Compound 215, 1-[5-(4-Cyano-phenyl)-8-methoxy-[1,2,4]triazolo[1,5-a]pyridin-2-yl]-cyclopropanecarboxylic acid cyanomethyl-amide]
< 500 | COc1ccc(-c2ccc(C#N)cc2)n2nc(C3(C(=O)NCCNC(C)=O)CC3)nc12 [Compound 216, 1-[5-(4-Cyano-phenyl)-8-methoxy-[1,2,4]triazolo[1,5-a]pyridin-2-yl]-cyclopropanecarboxylic acid (2-acetylamino-ethyl)-amide]
< 500 | COc1ccc(-c2ccc(C#N)cc2)n2nc(C3(C(=O)NCCNS(C)(=O)=O)CC3)nc12 [Compound 217, 1-[5-(4-Cyano-phenyl)-8-methoxy-[1,2,4]triazolo[1,5-a]pyridin-2-yl]-cyclopropanecarboxylic acid (2-methanesulfonylamino-ethyl)-amide]
< 500 | COc1ccc(-c2ccc(C#N)cc2)n2nc(C3(C(=O)NCCS(=O)(=O)N(C)C)CC3)nc12 [Compound 219, 1-[5-(4-Cyano-phenyl)-8-methoxy-[1,2,4]triazolo[1,5-a]pyridin-2-yl]-cyclopropanecarboxylic acid (2-dimethylsulfamoyl-ethyl)-amide]
< 500 | COc1ccc(-c2ccc(C#N)cc2)n2nc(C3(C(=O)NCCN(C)S(C)(=O)=O)CC3)nc12 [Compound 220, 1-[5-(4-Cyano-phenyl)-8-methoxy-[1,2,4]triazolo[1,5-a]pyridin-2-yl]-cyclopropanecarboxylic acid [2-(methanesulfonyl-methyl-amino)-ethyl]-amide]
